US20100298141A1, “SUBSTITUTED PYRIDINE N-OXIDE HERBICIDES” (E. I. DU PONT DE NEMOURS AND COMPANY, priority 2007, published 2010)

Assays:
Test in all cases: Test F preemergence test
[1] = test system: bermudagrass; assay type: in vivo, Cynodon dactylon; conditions: scale 0 to 100; for Plant response rating, Bermudagrass: 31 g ai/ha
How it was run: (§1)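 Visual ratings relative to controls, taken after 14 to 21 days in a greenhouse. Test chemicals, formulated in a surfactant-containing non-phytotoxic solvent mixture, were applied preemergence to sown seeds or postemergence to sugarcane plants.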

[2] = test system: kochia; assay type: in vivo, Kochia scoparia; conditions: scale 0 to 100; for Plant response rating, Kochia: 31 g ai/ha
How it was run: as §1

[3] = test system: pitted morningglory; assay type: in vivo, Ipomoea lacunosa; conditions: scale 0 to 100; for Plant response rating, Morningglory: 31 g ai/ha
How it was run: as §1

[4] = test system: purple nutsedge; assay type: in vivo, Cyperus rotundus; conditions: scale 0 to 100; for Plant response rating, Purple Nutsedge: 31 g ai/ha
How it was run: as §1

[5] = test system: mustard; assay type: in vivo, Brassica nigra; conditions: scale 0 to 100; for Plant response rating, Black Mustard: 31 g ai/ha
How it was run: as §1

[6] = test system: guineagrass; assay type: in vivo, Panicum maximum; conditions: scale 0 to 100; for Plant response rating, Guineagrass: 31 g ai/ha
How it was run: as §1

[7] = test system: dallisgrass; assay type: in vivo, Paspalum dilatatum; conditions: scale 0 to 100; for Plant response rating, Dallisgrass: 31 g ai/ha
How it was run: as §1

[8] = test system: barnyardgrass; assay type: in vivo, Echinochloa crus-galli; conditions: scale 0 to 100; for Plant response rating, Barnyardgrass: 31 g ai/ha
How it was run: as §1

[9] = test system: prickly sida; assay type: in vivo, Sida spinosa; conditions: scale 0 to 100; for Plant response rating, Prickly Sida: 31 g ai/ha
How it was run: as §1

[10] = test system: common purslane; assay type: in vivo, Portulaca oleracea; conditions: scale 0 to 100; for Plant response rating, Purslane: 31 g ai/ha
How it was run: as §1

[11] = test system: broadleaf signalgrass; assay type: in vivo, Brachiaria platyphylla; conditions: scale 0 to 100; for Signalgrass plant response rating: preemergence; for Plant response rating, Signalgrass: Preemergence
How it was run: as §1

[12] = test system: common groundsel; assay type: in vivo, Senecio vulgaris; conditions: scale 0 to 100; for Plant response rating, Groundsel: 31 g ai/ha
How it was run: as §1

[13] = test system: common chickweed; assay type: in vivo, Stellaria media; conditions: scale 0 to 100
How it was run: as §1

[14] = test system: annual bluegrass; assay type: in vivo, Poa annua; conditions: scale 0 to 100; for Plant response rating, Bluegrass: 31 g ai/ha
How it was run: as §1

[15] = test system: naked crabgrass; assay type: in vivo, Digitaria nuda; conditions: scale 0 to 100; for Plant response rating, Crabgrass, Naked: 31 g ai/ha
How it was run: as §1

[16] = test system: quackgrass; assay type: in vivo, Elytrigia repens; conditions: scale 0 to 100; for Plant response rating, Quackgrass: 31 g ai/ha
How it was run: as §1

[17] = test system: Canada horseweed; assay type: in vivo, Conyza canadensis; conditions: scale 0 to 100; for Plant response rating, Horseweed: 31 g ai/ha
Text: Seeds of plant species selected from bermudagrass (Cynodon dactylon), Surinam grass (Brachiaria decumbens), large crabgrass (Digitaria sanguinalis), green foxtail (Setaria viridis), goosegrass (Eleusine indica), johnsongrass (Sorghum halepense), kochia (Kochia scoparia), pitted morningglory (Ipomoea lacunosa), purple nutsedge (Cyperus rotundus), common ragweed (Ambrosia elation), mustard (Brassica nigra), guineagrass (Panicum maximum), […] (Paspalum dilatatum), barnyardgrass (Echinochloa crus-galli), southern sandbur (Cenchrus echinatus), common sowthistle (Sonchus oleraceous), prickly […] spinosa), Italian ryegrass (Lolium multiflorum), common purslane (Portulaca oleracea), broadleaf signalgrass (Brachiaria platyphylla), common groundsel (Senecio vulgaris), common chickweed (Stellaria media), Virginia dayflower (Commelina virginica), annual bluegrass (Poa annua), naked crabgrass (Digitaria nuda), […] cochinchinensis), quackgrass (Elytrigia repens), Canada horseweed (Conyza canadensis), field bindweed (Convolvulus arvensis), […] (Bidens bipinnata), common mallow (Malva sylvestris), Russian thistle (Salsola kali), and sugarcane (Saccharum officinarum) were planted and treated preemergence with test chemicals formulated in a non-phytotoxic solvent mixture which included a surfactant. At a different time, sugarcane was treated with postemergence applications of some of the test chemicals formulated in the same manner. Plants were approximately 3- to 4-leaf stage for the postemergence treatments. Treated plants and controls were maintained in a greenhouse for 14 to 21 days, after which time all species were compared to controls and visually evaluated. […] A dash (-) response means no test result.

[18] = test system: common mallow; assay type: in vivo, Malva sylvestris; conditions: scale 0 to 100
How it was run: as §1

Cn1nc(C(F)(F)F)c(C[S+]([O-])c2ccc(F)c[n+]2[O-])c1OC(F)F (stereo not shown) [Compound 58]
70: Plant response rating, Bermudagrass ([1]; Preemergence) | Morningglory plant response rating ([3]; 62 g ai/ha, Preemergence) | Bluegrass plant response rating ([14]; 62 g ai/ha, Preemergence) | Quackgrass plant response rating ([16]; 62 g ai/ha, Preemergence)
35: Plant response rating, Quackgrass ([16]; Preemergence)
75: Plant response rating, Dallisgrass ([7]; Preemergence) | Plant response rating, Crabgrass, Naked ([15]; Preemergence)
20: Plant response rating, Kochia ([2]; Preemergence) | Plant response rating, Groundsel ([12]; Preemergence)
90: Bermudagrass plant response rating ([1]; 62 g ai/ha, Preemergence) | Plant response rating, Guineagrass ([6]; Preemergence) | Dallisgrass plant response rating ([7]; 62 g ai/ha, Preemergence) | Plant response rating, Barnyardgrass ([8]; Preemergence) | Signalgrass plant response rating ([11]; 125 g ai/ha) | Mallow plant response rating ([18]; 125 g ai/ha, preemergence)
80: Purple Nutsedge plant response rating ([4]; 62 g ai/ha, Preemergence) | Purslane plant response rating ([10]; 125 g ai/ha, preemergence) | Plant response rating, Signalgrass ([11]; 62 g ai/ha)
40: Kochia plant response rating ([2]; 62 g ai/ha, Preemergence)
65: Prickly Sida plant response rating ([9]; 62 g ai/ha, Preemergence)
0: Plant response rating, Purple Nutsedge ([4]; Preemergence) | Plant response rating, Prickly Sida ([9]; Preemergence) | Plant response rating, Purslane ([10]; Preemergence) | Plant response rating, Bluegrass ([14]; Preemergence)
50: Plant response rating, Morningglory ([3]; Preemergence) | Plant response rating, Black Mustard ([5]; Preemergence)
30: Plant response rating, Signalgrass ([11]; 31 g ai/ha)
98: Dallisgrass plant response rating ([7]; 125 g ai/ha, preemergence) | Dallisgrass plant response rating ([7]; 250 g ai/ha, preemergence) | Prickly Sida plant response rating ([9]; 250 g ai/ha, preemergence) | Signalgrass plant response rating ([11]; 250 g ai/ha) | Horseweed plant response rating ([17]; 62 g ai/ha, Preemergence) | Horseweed plant response rating ([17]; 125 g ai/ha, preemergence) | Plant response rating, Horseweed ([17]; Preemergence)
60: Black Mustard plant response rating ([5]; 62 g ai/ha, Preemergence) | Groundsel plant response rating ([12]; 62 g ai/ha, Preemergence)
95: Purple Nutsedge plant response rating ([4]; 125 g ai/ha, preemergence) | Purple Nutsedge plant response rating ([4]; 250 g ai/ha, preemergence) | Prickly Sida plant response rating ([9]; 125 g ai/ha, preemergence) | Chickweed plant response rating ([13]; 62 g ai/ha, Preemergence) | Bluegrass plant response rating ([14]; 125 g ai/ha, preemergence) | Quackgrass plant response rating ([16]; 125 g ai/ha, preemergence)
25: Purslane plant response rating ([10]; 62 g ai/ha, Preemergence) | Mallow plant response rating ([18]; 62 g ai/ha, Preemergence)
100: Bermudagrass plant response rating ([1]; 125 g ai/ha, preemergence) | Bermudagrass plant response rating ([1]; 250 g ai/ha, preemergence) | Kochia plant response rating ([2]; 125 g ai/ha, preemergence) | Kochia plant response rating ([2]; 250 g ai/ha, preemergence) | Morningglory plant response rating ([3]; 125 g ai/ha, preemergence) | Morningglory plant response rating ([3]; 250 g ai/ha, preemergence) | Black Mustard plant response rating ([5]; 125 g ai/ha, preemergence) | Black Mustard plant response rating ([5]; 250 g ai/ha, preemergence) | Guineagrass plant response rating ([6]; 62 g ai/ha, Preemergence) | Guineagrass plant response rating ([6]; 125 g ai/ha, preemergence) | Guineagrass plant response rating ([6]; 250 g ai/ha, preemergence) | Barnyardgrass plant response rating ([8]; 62 g ai/ha, Preemergence) | Barnyardgrass plant response rating ([8]; 125 g ai/ha, preemergence) | Barnyardgrass plant response rating ([8]; 250 g ai/ha, preemergence) | Purslane plant response rating ([10]; 250 g ai/ha, preemergence) | Groundsel plant response rating ([12]; 250 g ai/ha, preemergence) | Chickweed plant response rating ([13]; 125 g ai/ha, preemergence) | Chickweed plant response rating ([13]; 250 g ai/ha, preemergence) | Bluegrass plant response rating ([14]; 250 g ai/ha, preemergence) | Crabgrass, Naked plant response rating ([15]; 62 g ai/ha, Preemergence) | Crabgrass, Naked plant response rating ([15]; 125 g ai/ha, preemergence) | Crabgrass, Naked plant response rating ([15]; 250 g ai/ha, preemergence) | Quackgrass plant response rating ([16]; 250 g ai/ha, preemergence) | Horseweed plant response rating ([17]; 250 g ai/ha, preemergence) | Mallow plant response rating ([18]; 250 g ai/ha, preemergence)
85: Groundsel plant response rating ([12]; 125 g ai/ha, preemergence)

CCc1cc[n+]([O-])c(S(=O)(=O)Cc2c(C(F)(F)F)nn(C)c2OCC(F)(F)F)c1 [Compound 60]
40: Prickly Sida plant response rating ([9]; 62 g ai/ha, Preemergence)
0: Plant response rating, Kochia ([2]; Preemergence) | Morningglory plant response rating ([3]; 62 g ai/ha, Preemergence) | Plant response rating, Morningglory ([3]; Preemergence) | Plant response rating, Purple Nutsedge ([4]; Preemergence) | Plant response rating, Black Mustard ([5]; Preemergence) | Plant response rating, Prickly Sida ([9]; Preemergence) | Purslane plant response rating ([10]; 62 g ai/ha, Preemergence) | Plant response rating, Purslane ([10]; Preemergence) | Plant response rating, Groundsel ([12]; Preemergence) | Plant response rating, Mallow ([18]; Preemergence, 31 g ai/ha)
20: Plant response rating, Bermudagrass ([1]; Preemergence) | Plant response rating, Crabgrass, Naked ([15]; Preemergence)
75: Dallisgrass plant response rating ([7]; 62 g ai/ha, Preemergence) | Plant response rating, Dallisgrass ([7]; Preemergence) | Prickly Sida plant response rating ([9]; 125 g ai/ha, preemergence) | Prickly Sida plant response rating ([9]; 250 g ai/ha, preemergence) | Signalgrass plant response rating ([11]; 125 g ai/ha) | Plant response rating, Signalgrass ([11]; 62 g ai/ha) | Groundsel plant response rating ([12]; 125 g ai/ha, preemergence) | Quackgrass plant response rating ([16]; 62 g ai/ha, Preemergence) | Mallow plant response rating ([18]; 62 g ai/ha, Preemergence)
25: Purslane plant response rating ([10]; 125 g ai/ha, preemergence)
65: Kochia plant response rating ([2]; 62 g ai/ha, Preemergence) | Plant response rating, Barnyardgrass ([8]; Preemergence)
30: Plant response rating, Signalgrass ([11]; 31 g ai/ha) | Plant response rating, Quackgrass ([16]; Preemergence)
95: Groundsel plant response rating ([12]; 250 g ai/ha, preemergence) | Plant response rating, Horseweed ([17]; Preemergence)
80: Bermudagrass plant response rating ([1]; 62 g ai/ha, Preemergence) | Purple Nutsedge plant response rating ([4]; 125 g ai/ha, preemergence) | Dallisgrass plant response rating ([7]; 125 g ai/ha, preemergence)
60: Black Mustard plant response rating ([5]; 62 g ai/ha, Preemergence) | Purslane plant response rating ([10]; 250 g ai/ha, preemergence) | Groundsel plant response rating ([12]; 62 g ai/ha, Preemergence)
90: Purple Nutsedge plant response rating ([4]; 250 g ai/ha, preemergence) | Bluegrass plant response rating ([14]; 125 g ai/ha, preemergence) | Quackgrass plant response rating ([16]; 125 g ai/ha, preemergence)
35: Plant response rating, Guineagrass ([6]; Preemergence) | Plant response rating, Bluegrass ([14]; Preemergence)
70: Morningglory plant response rating ([3]; 125 g ai/ha, preemergence)
100: Bermudagrass plant response rating ([1]; 125 g ai/ha, preemergence) | Bermudagrass plant response rating ([1]; 250 g ai/ha, preemergence) | Kochia plant response rating ([2]; 125 g ai/ha, preemergence) | Kochia plant response rating ([2]; 250 g ai/ha, preemergence) | Morningglory plant response rating ([3]; 250 g ai/ha, preemergence) | Black Mustard plant response rating ([5]; 125 g ai/ha, preemergence) | Black Mustard plant response rating ([5]; 250 g ai/ha, preemergence) | Guineagrass plant response rating ([6]; 62 g ai/ha, Preemergence) | Guineagrass plant response rating ([6]; 125 g ai/ha, preemergence) | Guineagrass plant response rating ([6]; 250 g ai/ha, preemergence) | Dallisgrass plant response rating ([7]; 250 g ai/ha, preemergence) | Barnyardgrass plant response rating ([8]; 62 g ai/ha, Preemergence) | Barnyardgrass plant response rating ([8]; 125 g ai/ha, preemergence) | Barnyardgrass plant response rating ([8]; 250 g ai/ha, preemergence) | Signalgrass plant response rating ([11]; 250 g ai/ha) | Chickweed plant response rating ([13]; 62 g ai/ha, Preemergence) | Chickweed plant response rating ([13]; 125 g ai/ha, preemergence) | Chickweed plant response rating ([13]; 250 g ai/ha, preemergence) | Plant response rating, Chickweed ([13]; Preemergence, 31 g ai/ha) | Bluegrass plant response rating ([14]; 250 g ai/ha, preemergence) | Crabgrass, Naked plant response rating ([15]; 62 g ai/ha, Preemergence) | Crabgrass, Naked plant response rating ([15]; 125 g ai/ha, preemergence) | Crabgrass, Naked plant response rating ([15]; 250 g ai/ha, preemergence) | Quackgrass plant response rating ([16]; 250 g ai/ha, preemergence) | Horseweed plant response rating ([17]; 62 g ai/ha, Preemergence) | Horseweed plant response rating ([17]; 125 g ai/ha, preemergence) | Horseweed plant response rating ([17]; 250 g ai/ha, preemergence) | Mallow plant response rating ([18]; 125 g ai/ha, preemergence) | Mallow plant response rating ([18]; 250 g ai/ha, preemergence)
50: Purple Nutsedge plant response rating ([4]; 62 g ai/ha, Preemergence) | Bluegrass plant response rating ([14]; 62 g ai/ha, Preemergence)
